In the first assay the target is human Factor XIa (Homo sapiens (Human), UniProt P03951). Put plainly: Factor XIa Assay. In kind it is biochemical. The conditions noted are these: purified human Factor XIa 40 pM, Z-Gly-Pro-Arg-AFC 100 μM, pH 7.4; read-out: FXIa Ki. In a few lines:
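Ki derived from the dependence of Vo/Vi on inhibitor concentration under a competitive-inhibition model, after pre-equilibration of enzyme and inhibitor. Reaction: 40 pM human FXIa, 100 μM Z-Gly-Pro-Arg-AFC, HEPES 50 mM pH 7.4 with NaCl, CaCl2 and PEG 8000; run at room temperature or 37° C.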
human Factor XIa, sequence (P03951 388-625): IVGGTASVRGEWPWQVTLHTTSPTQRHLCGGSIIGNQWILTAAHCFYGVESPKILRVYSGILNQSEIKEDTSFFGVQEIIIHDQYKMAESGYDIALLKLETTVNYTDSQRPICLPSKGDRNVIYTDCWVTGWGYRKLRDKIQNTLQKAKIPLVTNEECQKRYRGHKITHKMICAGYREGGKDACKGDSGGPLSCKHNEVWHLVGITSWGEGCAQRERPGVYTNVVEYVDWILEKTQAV
human Factor XIa, sequence (P03951 19-387 partner): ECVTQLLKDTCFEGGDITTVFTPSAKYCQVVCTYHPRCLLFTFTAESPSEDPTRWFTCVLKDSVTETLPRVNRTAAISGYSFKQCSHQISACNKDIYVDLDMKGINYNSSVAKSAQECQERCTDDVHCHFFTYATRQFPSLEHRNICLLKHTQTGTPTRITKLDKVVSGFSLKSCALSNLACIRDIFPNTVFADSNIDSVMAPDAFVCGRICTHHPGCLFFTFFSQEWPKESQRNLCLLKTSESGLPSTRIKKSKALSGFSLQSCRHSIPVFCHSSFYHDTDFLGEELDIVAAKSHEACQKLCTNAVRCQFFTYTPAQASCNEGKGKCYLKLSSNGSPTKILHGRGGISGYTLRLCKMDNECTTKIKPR
Turning to `COC(=O)Nc1ccc(C(=O)N[C@@]2(C(=O)N3CCC4(C3)OC(=O)Nc3ccc(Cl)cc34)C[C@@H]2c2ccccc2)cc1` (stereo partly drawn) [Example 25, methyl (4-(((1S,2R)-1-(6-chloro-2-oxo-1,2-dihydrospiro[benzo[d][1,3]oxazine-4,3′-pyrrolidin]-1′-ylcarbonyl)-2-phenylcyclopropyl)carbamoyl)phenyl)carbamate], the Ki was at least 5000 nM. Same read-out and setting: then `COC(=O)Nc1ccc(C(=O)N[C@@H](CCNC(=O)C2CCC2)C(=O)N2CCC[C@@]3(C2)OC(=O)Nc2ccc(Cl)cc23)cc1` [Example 107, methyl (4-(((S)-1-((R)-6-chloro-2-oxo-1,2-dihydrospiro[benzo[d][1,3]oxazine-4,3′-piperidin]-1′-yl)-4-(cyclobutanecarboxamido)-1-oxobutan-2-yl)carbamoyl)phenyl)carbamate], with 50.7 nM; and `O=C1Nc2ccc(Cl)cc2[C@@]2(CCCN(C(=O)[C@H](Cc3ccccc3)Nc3ccc(-c4cccc(C(=O)O)c4)cn3)C2)O1` [Example 297, 3-(6-(((S)-1-((R)-6-chloro-2-oxo-1,2-dihydrospiro[benzo[d][1,3]oxazine-4,3′-piperidin]-1′-yl)-1-oxo-3-phenylpropan-2-yl)amino)pyridin-3-yl)benzoic acid], with 10000 nM; and `COC(=O)Nc1ccc(C(=O)N[C@H](C(=O)N2CCC3(C2)OC(=O)Nc2ccc(Cl)cc23)[C@H](C)c2ccccc2)cc1` (stereo partly drawn) [Example 33, methyl (4-(((2S,3R)-1-(6-chloro-2-oxo-1,2-dihydrospiro[benzo[d][1,3]oxazine-4,3′-pyrrolidin]-1′-yl)-1-oxo-3-phenylbutan-2-yl)carbamoyl)phenyl)carbamate], with 4310 nM. For `O=C(NCc1cccc(C(=O)O)c1)N[C@@H](Cc1ccccc1)C(=O)N1CCC2(C1)OC(=O)Nc1ccc(Cl)cc12` (stereo partly drawn) [Example 279, 3-((3-((2S)-1-(6-chloro-2-oxo-1,2-dihydrospiro[benzo[d][1,3]oxazine-4,3′-pyrrolidin]-1′-yl)-1-oxo-3-phenylpropan-2-yl)ureido)methyl)benzoic acid], the Ki turned out to be 5000 nM.

With `COC(=O)Nc1ccc(C(=O)N[C@@H](CC2CCCCC2)C(=O)N2CCC3(C2)OC(=O)Nc2ccc(Cl)cc23)cc1` (stereo partly drawn) [Example 34, methyl (4-(((2S)-1-(6-chloro-2-oxo-1,2-dihydrospiro[benzo[d][1,3]oxazine-4,3′-pyrrolidin]-1′-yl)-3-cyclohexyl-1-oxopropan-2-yl)carbamoyl)phenyl)carbamate], the Ki came to 90 nM. Consider `COC(=O)Nc1ccc(C(=O)NC(C[C@@H]2CCCO2)C(=O)N2CCC[C@@]3(C2)OC(=O)Nc2ccc(Cl)c(F)c23)cc1` (single isomer, unassigned) [Example 116B], for which the Ki worked out at 4.21 nM. With `O=C1Nc2ccc(Cl)cc2[C@@]2(CCN(C(=O)[C@H](Cc3ccccc3)C(=O)Nc3ccc(C(=O)O)cc3)C2)O1` [Example 121c, 4-((R)-2-benzyl-3-((R)-6-chloro-2-oxo-1,2-dihydrospiro[benzo[d][1,3]oxazine-4,3′-pyrrolidin]-1′-yl)-3-oxopropanamido)benzoic acid], the Ki was determined as 439 nM.

Still in this assay, the particulars now being: read-out: FXIa Ki.
With `O=C1Nc2ccc(Cl)cc2[C@@]2(CCCN(C(=O)[C@H](Cc3ccccc3)NC(=O)c3ccc4c(O)cc(=O)[nH]c4c3)C2)O1` [Example 221], the Ki was 518 nM. On the same count and under the same terms, next, `O=C1C[S+]([O-])c2cc(C(=O)N[C@@H](Cc3ccccc3)C(=O)N3CCC4(C3)OC(=O)Nc3ccc(Cl)cc34)ccc2N1` (stereo partly drawn) [Example 192, N-((2S)-1-(6-chloro-2-oxo-1,2-dihydrospiro[benzo[d][1,3]oxazine-4,3′-pyrrolidine]-1′-yl)-1-oxo-3-phenylpropan-2-yl)-3-oxo-3,4-dihydro-2H-benzo[b][1,4]thiazine-7-carboxamide 1-oxide]: 99.7 nM. On to `CC(=O)Oc1cc(=O)[nH]c2ccc(C(=O)N[C@@H](Cc3ccccc3)C(=O)N3CCC[C@@]4(C3)OC(=O)Nc3ccc(Cl)c(F)c34)cc12` [Example 211], for which the Ki is 39.6 nM. The same measure, in the same setting: next, `O=C1Nc2ccc(Cl)cc2C2(CCN(C(=O)[C@H](Cc3ccccc3)NC(=O)c3cc(O)ncn3)C2)O1` (stereo partly drawn) [Example 177]: 559 nM.

These data come from US10093683B2, “Factor XIa inhibitors” (Merck Sharp & Dohme Corp., priority 2014, dated 2018).
